This note sets out measurements from patent US20250163104A1, “MACROCYCLIC IMMUNOMODULATORS” (priority 2021, published 2025).

The assay deals with T1, human PD-1 / PD-L1-Ig binding on Jurkat cell line over-expressing human PD-1 (Jurkat-PD-1) (Homo sapiens, UniProt Q15116).
T1 construct: expressed in transfected cells; host or cells: Jurkat
In words: Jurkat-PD-1 Cell Binding High-Content Screening Assay (CBA). Format: cell-based. The settings on record: PE-labeled PD-L1-Ig 20 nM final. The procedure, abridged: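 Cell-bound PE-labeled PD-L1-Ig (20 nM final, 1 h) measured by high-content imaging after fixation and Hoechst 33342 counterstain. Compound was applied first for 2 h at 37° C. to Jurkat cells over-expressing human PD-1 in DMEM with 10% FCS.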

Where [1] appears, read: Jurkat-PD-1 cells, read-out: Jurkat HPD1_PDL1 IC50.

Where two headings read alike, the source gives them in different places. *1 amine or outer side, *2 acyl side, *3 side chain or, on linkers, in order; H or OH if unused. Where a SMILES comes first, the peptide text is derived from it. Bridges are numbered along the chain shown (N, C = ends). [ ]: non-standard residue; d: D form. The star is where a group is joined. Phe(3-CF3) = N[C@@H](Cc1cccc(C(F)(F)F)c1)C(=O)O; Ala(morpholin-4-yl) = N[C@@H](CN1CCOCC1)C(=O)O; Phe(4-COOH) = N[C@@H](Cc1ccc(C(=O)O)cc1)C(=O)O; Phg(4-Ph) = N[C@H](C(=O)O)c1ccc(-c2ccccc2)cc1; X5 = O=C([C@H](Cc1ccc2ncccc2c1)N[*:1])[*:2]; Bip = N[C@@H](Cc1ccc(-c2ccccc2)cc1)C(=O)O; Phe(4-CN) = N#Cc1ccc(C[C@H](N)C(=O)O)cc1; Phe(3-Me) = Cc1cccc(C[C@H](N)C(=O)O)c1; Val(3-OH) = CC(C)(O)[C@H](N)C(=O)O; 4Pal = N[C@@H](Cc1ccncc1)C(=O)O; 3Thi = N[C@@H](Cc1ccsc1)C(=O)O; Cha = N[C@@H](CC1CCCCC1)C(=O)O; Cit = NC(=O)NCCC[C@H](N)C(=O)O; Ahp(2) = CCCCC[C@H](N)C(=O)O; Carboxymethyl = O=C(O)C*; Nle = CCCC[C@H](N)C(=O)O; Orn = NCCC[C@H](N)C(=O)O; Pra = C#CC[C@H](N)C(=O)O; Dab = NCC[C@H](N)C(=O)O; Dap = NC[C@H](N)C(=O)O

T1 sequence (Q15116 25-288): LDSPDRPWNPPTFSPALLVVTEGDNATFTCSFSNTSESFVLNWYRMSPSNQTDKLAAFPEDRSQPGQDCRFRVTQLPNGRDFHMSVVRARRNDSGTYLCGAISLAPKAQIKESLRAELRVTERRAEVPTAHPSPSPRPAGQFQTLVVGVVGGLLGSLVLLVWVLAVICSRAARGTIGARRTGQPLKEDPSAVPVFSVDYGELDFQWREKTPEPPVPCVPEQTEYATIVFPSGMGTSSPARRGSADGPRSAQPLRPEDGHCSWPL

What is called IC50 is the concentration that inhibits the measured activity by half. On to `CC[C@H](C)[C@@H]1NC(=O)[C@H](Cc2ccc(-c3ccccc3)cc2)NC(=O)[C@H](C(C)C)NC(=O)[C@H](Cc2c[nH]c3ccccc23)NC(=O)[C@H](CC(=O)O)NC(=O)[C@H](Cc2ccc(OCC(=O)O)cc2)NC(=O)[C@H](Cc2ccncc2)NC(=O)CSC[C@@H](C(=O)N[C@@H](C)C(N)=O)NC(=O)[C@H]([C@@H](C)O)NC(=O)[C@H](C(C)C)NC(=O)[C@H](CC2CCCCC2)NC(=O)[C@H](Cc2cnc[nH]2)NC(=O)[C@@H](CC(C)C)NC(=O)[C@H](CCCN)NC1=O` [Compound 1608], for which the IC50 under setting [1] is 32.2 nM.

Regarding `CCCC[C@@H]1NC(=O)[C@H](CCCNC(=N)N)NC(=O)[C@@H](CC(C)C)NC(=O)[C@H](CCCN)NC(=O)[C@H](CCCNC(N)=O)NC(=O)[C@H](Cc2ccc(-c3ccccc3)cc2)NC(=O)[C@H](C(C)C)NC(=O)[C@H](Cc2c[nH]c3ccccc23)NC(=O)[C@H](CC(=O)O)NC(=O)[C@H](Cc2ccc(O)cc2)NC(=O)[C@H](Cc2ccc(OCC(=O)O)cc2)NC(=O)CSC[C@@H](C(=O)N[C@@H](C)C(N)=O)NC(=O)[C@H]([C@@H](C)O)NC(=O)[C@H](C(C)C)NC1=O` [Compound 1176] ({CH2CO}-Y(Carboxymethyl)YDWV[Bip][Cit][Orn][dL]R[Nle]VTCA-NH2; thioether N-14), the IC50 under setting [1] turned out to be 75.7 nM.

`CCCCC[C@@H]1NC(=O)[C@H](C(C)C)NC(=O)[C@@H](Cc2ccccc2)NC(=O)[C@H](CC(=O)O)NC(=O)[C@H](CCCNC(=N)N)NC(=O)[C@H](c2ccc(-c3ccccc3)cc2)NC(=O)[C@H](C(C)C)NC(=O)[C@H](Cc2c[nH]c3ccccc23)NC(=O)[C@H](CC(=O)O)NC(=O)[C@H](Cc2ccc(O)cc2)NC(=O)[C@H](Cc2ccccc2)NC(=O)CSC[C@@H](C(=O)NCC(N)=O)NC(=O)[C@H](CO)NC(=O)[C@H](C(C)C)NC1=O` [Compound 1000] ({CH2CO}-FYDWV[Phg(4-Ph)]RD[dF]V[Ahp(2)]VSCG-NH2; thioether N-14): the IC50 under setting [1] came out at 251 nM.

On to `Cc1cccc(C[C@@H]2NC(=O)[C@H](CC(=O)O)NC(=O)[C@H](Cc3ccc(OCC(=O)O)cc3)NC(=O)[C@H](Cc3ccsc3)NC(=O)CSC[C@@H](C(=O)N[C@H](C)C(N)=O)NC(=O)[C@H](CO)NC(=O)[C@H](C(C)(C)O)NC(=O)[C@H](CC3CCCCC3)NC(=O)[C@H](CCN)NC(=O)[C@@H](CC(C)C)NC(=O)[C@H](CCCN)NC(=O)[C@H](Cc3ccc(OCC(=O)O)cc3)NC(=O)[C@H](Cc3ccc(-c4ccccc4)cc3)NC(=O)[C@H](Cc3ccc(OCC(=O)O)cc3)NC2=O)c1` [Compound 2654] ({CH2CO}-[3Thi]Y(Carboxymethyl)D[Phe(3-Me)]Y(Carboxymethyl)[Bip]Y(Carboxymethyl)[Orn][dL][Dab][Cha][Val(3-OH)]SC[dA]-NH2; thioether N-14), for which, under setting [1], the IC50 worked out at 6.4 nM.

Turning to `CC(C)C[C@H]1NC(=O)[C@H](CCCN)NC(=O)[C@H](Cc2ccc(C(=O)O)cc2)NC(=O)[C@H](Cc2ccc(-c3ccccc3)cc2)NC(=O)[C@H](Cc2ccc3ncccc3c2)NC(=O)[C@H](Cc2cccc(C(F)(F)F)c2)NC(=O)[C@H](CC(=O)O)NC(=O)[C@H](Cc2ccc(C(=O)O)cc2)NC(=O)[C@H](CN2CCOCC2)NC(=O)CSC[C@@H](C(=O)N[C@@H](CCN)C(N)=O)NC(=O)[C@H](CCC(=O)O)NC(=O)[C@H](C(C)C)NC(=O)[C@H](CC2CCCCC2)NC(=O)[C@H](CCN)NC1=O` [Example 2741] ({CH2CO}-[Ala(morpholin-4-yl)][Phe(4-COOH)]D[Phe(3-CF3)][X5][Bip][Phe(4-COOH)][Orn][dL][Dab][Cha]VEC[Dab]-NH2; thioether N-14), the IC50 under setting [1] turned out to be 2.3 nM.

`CCCC[C@@H]1NC(=O)[C@H](CCN)NC(=O)[C@@H](CC(C)C)NC(=O)[C@H](CCCN)NC(=O)[C@H]([C@@H](C)CC)NC(=O)[C@H](Cc2ccc(-c3ccccc3)cc2)NC(=O)[C@H](C(C)C)NC(=O)[C@H](Cc2cccc(C)c2)NC(=O)[C@H](CC(=O)O)NC(=O)[C@H](Cc2ccc(OCC(=O)O)cc2)NC(=O)[C@H](Cc2ccncc2)NC(=O)CSC[C@@H](C(=O)N[C@@H](C)C(N)=O)NC(=O)[C@H]([C@@H](C)O)NC(=O)[C@H](C(C)C)NC1=O` [Compound 1197]: the IC50 under setting [1] is 12 nM.

With `C#CC[C@H](NC(=O)[C@H](CCN)NC(=O)[C@@H]1CSCC(=O)N[C@@H](CCCN)C(=O)N[C@@H](Cc2ccc(C(=O)O)cc2)C(=O)N[C@@H](CC(=O)O)C(=O)N[C@@H](Cc2cccc(C)c2)C(=O)N[C@@H](Cc2ccc(C(=O)O)cc2)C(=O)N[C@@H](Cc2ccc(-c3ccccc3)cc2)C(=O)N[C@@H](Cc2ccc(C(=O)O)cc2)C(=O)N[C@@H](CCCN)C(=O)N[C@H](CC(C)C)C(=O)N[C@@H](CCN)C(=O)N[C@@H](CC2CCCCC2)C(=O)N[C@@H](C(C)(C)O)C(=O)N[C@@H](CO)C(=O)N1)C(N)=O` [Compound 1846] ({CH2CO}-[Orn][Phe(4-COOH)]D[Phe(3-Me)][Phe(4-COOH)][Bip][Phe(4-COOH)][Orn][dL][Dab][Cha][Val(3-OH)]SC[Dab][Pra]-NH2; thioether N-14), the IC50 under setting [1] was determined as 8.3 nM.

For the compound `Cc1cccc(C[C@@H]2NC(=O)[C@H](CC(=O)O)NC(=O)[C@H](Cc3ccc(OCC(=O)O)cc3)NC(=O)[C@H](CN)NC(=O)CSC[C@@H](C(N)=O)NC(=O)[C@H](CC(N)=O)NC(=O)[C@H](C(C)C)NC(=O)[C@H](CC3CCCCC3)NC(=O)[C@H](CCN)NC(=O)[C@@H](CC(C)C)NC(=O)[C@H](CCCN)NC(=O)[C@H](Cc3ccc(OCC(=O)O)cc3)NC(=O)[C@H](Cc3ccc(-c4ccccc4)cc3)NC(=O)[C@H](Cc3ccc(OCC(=O)O)cc3)NC2=O)c1` [Compound 1780] ({CH2CO}-[Dap]Y(Carboxymethyl)D[Phe(3-Me)]Y(Carboxymethyl)[Bip]Y(Carboxymethyl)[Orn][dL][Dab][Cha]VNC-NH2; thioether N-14), the IC50 under setting [1] is 11.3 nM.

Take `CC(C)C[C@H]1NC(=O)[C@H](CCCN)NC(=O)[C@H](C(C)C)NC(=O)[C@H](Cc2ccc(-c3ccccc3)cc2)NC(=O)[C@H](C(C)C)NC(=O)[C@H](Cc2c[nH]c3ccccc23)NC(=O)[C@H](CC(=O)O)NC(=O)[C@H](Cc2ccc(OCC(=O)O)cc2)NC(=O)[C@H](Cc2ccc(OCc3ccccc3)cc2)NC(=O)CSC[C@@H](C(=O)N[C@@H](C)C(N)=O)NC(=O)[C@H]([C@@H](C)O)NC(=O)[C@H](C(C)C)NC(=O)[C@H](CC2CCCCC2)NC(=O)[C@H](CCN)NC1=O` [Compound 1527]: the IC50 (Jurkat HPD1_PDL1 IC50, Jurkat-PD-1 cells) stood at 103 nM.

For the compound `Cc1cccc(C[C@@H]2NC(=O)[C@H](CC(=O)O)NC(=O)[C@H](Cc3ccc(C#N)cc3)NC(=O)[C@H](Cc3ccncc3)NC(=O)CSC[C@@H](C(=O)N[C@@H](CCN)C(N)=O)NC(=O)[C@H](Cc3c[nH]cn3)NC(=O)[C@H](C(C)(C)O)NC(=O)[C@H](CC3CCCCC3)NC(=O)[C@H](CCN)NC(=O)[C@@H](CC(C)C)NC(=O)[C@H](CCCN)NC(=O)[C@H](Cc3ccc(OCC(=O)O)cc3)NC(=O)[C@H](Cc3ccc(-c4ccccc4)cc3)NC(=O)[C@H](Cc3ccc(OCC(=O)O)cc3)NC2=O)c1` [Compound 2675] ({CH2CO}-[4Pal][Phe(4-CN)]D[Phe(3-Me)]Y(Carboxymethyl)[Bip]Y(Carboxymethyl)[Orn][dL][Dab][Cha][Val(3-OH)]HC[Dab]-NH2; thioether N-14), the IC50 under setting [1] was determined as 795 nM.
